Test results from patent US20090042863A1, “Therapeutic Agent for Diabetes” (Takeda Pharmaceutical Company Limited, priority 2005, published 2009).
Where a name gives a salt, the structure may show the parent alone.

Legend:
Type in all cases: in vivo
db/db mouse [1] = experiment: Pancreatic insulin content in db/db mice, Experimental Example 2 (voglibose, compound A); conditions: male, 6-week-old, powder diet with voglibose 0.001 (w/w)% and/or compound A 0.03 (w/w)% free form for 27 consecutive days, pancreas isolated at day 29, mean ± SD, n=6
Method: (§1) First, the mouse pancreas was homogenated in its 10 times weight of 74% ethanol (containing 0.15 mM hydrochloric acid). The obtained homogenate solution was left standing overnight under the shading conditions at 4° C., and centrifuged at 15000 rpm for 5 min. The obtained supernatant was appropriately diluted with PBS(−) (phosphate-buffered saline) containing 0.1% BSA (bovine serum albumin). The insulin content of the diluted solution was measured by radioimmunoassay (trade name: RAT INSULIN RIA KIT, manufactured by RINCO Research, U.S.A.), and the insulin content per pancreatic tissue weight was calculated. […]
In the above-mentioned Groups A-D, pancreas was isolated from the mice at day 29 from the start of the powder feed administration, and the pancreatic insulin content was measured.
(§2) The insulin content per pancreatic tissue weight was calculated in the same manner as in Experimental Example 1. […]

db/db mouse [2] = experiment: Pancreatic insulin content in db/db mice, Experimental Example 3 (pioglitazone, compound B); conditions: male, 6-week-old, powder diet with pioglitazone hydrochloride 0.0075 (w/w)% as pioglitazone and/or compound B 0.03 (w/w)% free form for 26 consecutive days, pancreas isolated at day 28, mean ± SD, n=7
Method: as §1
(§3) In the above-mentioned Groups A-D, pancreas was isolated from the mice at day 28 from the start of the powder feed administration, and the pancreatic insulin content was measured.
as §2

db/db mouse [3] = experiment: Pancreatic insulin content in db/db mice, Experimental Example 4 (pioglitazone, compound C); conditions: male, 6-week-old, powder diet with pioglitazone hydrochloride 0.0075 (w/w)% as pioglitazone and/or compound C 0.1 (w/w)% free form for 26 consecutive days, pancreas isolated at day 28, mean ± SD, n=7
Method: as §1, §3, §2

Row | Compound | Pancreatic insulin content (db/db mouse [1]) | Pancreatic insulin content (db/db mouse [2]) | Pancreatic insulin content (db/db mouse [3])
1 | Cn1c(=O)cc(N2CCC[C@@H](N)C2)n(Cc2ccccc2C#N)c1=O.O=C(O)c1ccccc1 [compound A, 2-[[6-[(3R)-3-amino-1-piperidinyl]-3,4-dihydro-3-methyl-2,4-dioxo-1(2H)-pyrimidinyl]methyl]benzonitrile benzoate] | 92.0 ± 37.0 ng/mg tissue |  | 
2 | Cn1c(=O)cc(N2CCC[C@@H](N)C2)n(Cc2cc(F)ccc2C#N)c1=O.O=C(O)CCC(=O)O [compound B, 2-[[6-[(3R)-3-amino-1-piperidinyl]-3,4-dihydro-3-methyl-2,4-dioxo-1(2H)-pyrimidinyl]methyl]-4-fluorobenzonitrile succinate] |  | 58.1 ± 17.0 ng/mg tissue | 
3 | N#Cc1ccccc1Cn1c(N2CCC[C@@H](N)C2)ncc(F)c1=O.O=C(O)C(O)C(O)C(=O)O [compound C, 2-[2-(3-(R)-aminopiperidin-1-yl)-5-fluoro-6-oxo-6H-pyrimidin-1-ylmethyl]benzonitrile tartrate] |  |  | 57.2 ± 17.8 ng/mg tissue
4 | CCc1ccc(CCOc2ccc(CC3SC(=O)NC3=O)cc2)nc1 (stereo not drawn) [pioglitazone, pioglitazone hydrochloride] |  | 74.8 ± 21.5 ng/mg tissue | 74.8 ± 21.5 ng/mg tissue
5 | OCC(CO)N[C@H]1C[C@](O)(CO)[C@@H](O)[C@H](O)[C@H]1O [voglibose] | 198.1 ± 169.8 ng/mg tissue |  | 
